# In US12637418B2, “Heterocyclic compounds as antagonist of NMDA” (TAKEDA PHARMACEUTICAL COMPANY LIMITED, priority 2019, dated 2026):
# Key:
# [1] = biological target: NMDA receptor composed of four subunits including 2 sets of heterodimers of NR1 and NR2B (human GRIN1 and GRIN2B expressed in HEK293 cell) (Homo sapiens, UniProt Q13224); assay: NR2B Ca^2+ influx assay; format: cell-based; conditions: 10 μM final compound concentration; 30 μM glutamic acid and 30 μM glycine; HEK293 cells expressing GRIN1 and GRIN2B; Fluo-4 fluorescence; read-out: inhibitory rate (10 μM compound concentration)
# From the text: To confirm the “antagonistic action on an NMDA receptor containing the NR2B subunit” of the compound of the present invention, human embryonic kidney cell expressing the “NMDA receptor composed of four subunits including 2 sets of heterodimers of NR1 and NR2B”, specifically HEK293 cell expressing human glutamate ionotropic receptor NMDA type subunit 1 (GRIN1) and human glutamate ionotropic receptor NMDA type subunit 2B (GRIN2B), was used and the activation suppressive effect on the receptors was measured.
# HEK293 cells that express GRIN1 and GRIN2B were purchased from ChanTest (Human NMDA (NR1/NR2B) Receptor-expressing, stable replicating cell line (HEK293) catalog No. CT6121).
# As an index of the NMDA receptor activation, intracellular calcium ion (Ca^2+) influx caused by the binding of glycine and glutamic acid with NR1 and NR2B, respectively, was used.
# HEK293 cells that express GRIN1 and GRIN2B were cultured in DMEM/F-12 (COSMO BIO, 10-092-CM) medium added with 10% FBS (fetal bovine serum, AusGene), 100 units/mL penicillin, 100 μg/mL streptomycin, 500 μg/mL neomycin, 100 μg/mL Zeocin (registered trade mark, Invitrogen), 5 μg/mL Blasticidin in a cell culture flask in an incubator (under 37° C., 5% CO2).
# The cells were detached from the flask with trypsin the day before the assay, suspended in a seeding medium (DMEM (Invitrogen, 31053) added with 10% FBS, 100 units/mL penicillin, 100 μg/mL streptomycin) at 8×10^5 cells/mL, seeded by 25 μL per well in a 384-well plate (Falcon, 356663) at 20000 cells/well, and cultured overnight in an incubator. On the day of the assay, tetracycline (Wako Pure Chemical Industries, Ltd., 209-16561) was diluted with the seeding medium at 2 μg/mL, added at 25 μL/well to the plate seeded with the cells, and cultured for 2 hr in an incubator. Thereafter, the medium was removed, and the cells were washed with 50 μL/well assay buffer (137 mM NaCl, 4 mM KCl, 1.8 mM CaCl2, 10 mM HEPES (pH 7.2), 10 mM Glucose, 0.1% BSA). Then, a loading buffer (assay buffer added with 2.5 μM Fluo-4AM, 2 mM Amaranth, 1 mM Tartrazine) was added at 25 μL/well, and the cells were incubated in the incubator for 30 min, and at room temperature for 15 min. A solution of the Example compound diluted with the above-mentioned assay buffer at 30 μM (final concentration 10 μM) was added at 25 μL/well, and the cells were left standing for 15 min at room temperature. Using FDSS7000EX/μCELL (Hamamatsu Photonics K.K.), an assay buffer containing 30 μM glutamic acid and 30 μM glycine was added at 25 μL/well, and fluorescence signals with wavelengths of Excitation 480 nm and Emission 540 nm were measured every 3 seconds for 5 min. The inhibitory activity was calculated as a relative activity value (inhibitory rate) that inhibits 100% of the cumulative value of the fluorescence value of a well added with an assay buffer free of glutamic acid, glycine, relative to the cumulative value of the fluorescence value of each well.
# [2] = system: NMDA receptor containing NR2B subunit (NMDA receptor expressed in the hippocampus tissue); assay: In vivo [^3H]MK-801 binding test; set-up: species or system Sprague Dawley rats; conditions: [^3H]MK-801 binding inhibitory rate, rat hippocampus, vehicle 100%, MK-801 maleate 0%
# Method: In Vivo [^3H]MK-801 Binding Test
# To confirm the “functionally antagonistic action in vivo for NMDA receptor containing NR2B subunit” that the compound of the present invention has, a binding test was performed using a tritium-labeled form of MK-801 ((5R,10S)-5-methyl-10,11-dihydro-5H-5,10-epiminodibenzo[a,d][7]annulene) ([^3H]MK-801) which is a compound that binds to the gate of the NMDA receptor.
# An Example compound (1 mg/kg/2 mL, 0.5% MC water) or vehicle ([…], 0.5% MC water) was orally administered (p.o.) to Sprague Dawley rats (body weight 180-260 g). After a certain period of time (near the time when the maximum blood concentration was reached), [^3H]MK-801 (20 μCi/kg/mL, Muromachi Kikai Co., Ltd.) was intravenously administered from the tail vein. […] 10 mL of liquid scintillator A (Fujifilm Wako Pure Chemical Corporation) was added, and the residual radioactivity was measured by a liquid scintillation counter (ALOKA LSC-6100). The residual radioactivity of 100 μL of the homogenate before filtration through the glass filter was also measured in the same manner. By calculating [residual radioactivity in filter/residual radioactivity in 100 μL of homogenate], correction by the dose of [^3H]MK-801 was performed, and the value was used as a binding ratio of [^3H]MK-801 in the NMDA receptor expressed in the hippocampus tissue of each individual. […]
# [3] = intravenous single administration; cited from earlier work
# [4] = continuous intravenous administration; cited from earlier work
# [5] = rodents; cited from earlier work
# [6] = in vivo; cited from earlier work
# [7] = in vivo; cited from earlier work; remark: listed apart in the source
# Chain of NMDA receptor composed of four subunits including 2 sets of heterodimers of NR1 and NR2B (human GRIN1 and GRIN2B expressed in HEK293 cell) (Q13224 27-1484, other chains not shown): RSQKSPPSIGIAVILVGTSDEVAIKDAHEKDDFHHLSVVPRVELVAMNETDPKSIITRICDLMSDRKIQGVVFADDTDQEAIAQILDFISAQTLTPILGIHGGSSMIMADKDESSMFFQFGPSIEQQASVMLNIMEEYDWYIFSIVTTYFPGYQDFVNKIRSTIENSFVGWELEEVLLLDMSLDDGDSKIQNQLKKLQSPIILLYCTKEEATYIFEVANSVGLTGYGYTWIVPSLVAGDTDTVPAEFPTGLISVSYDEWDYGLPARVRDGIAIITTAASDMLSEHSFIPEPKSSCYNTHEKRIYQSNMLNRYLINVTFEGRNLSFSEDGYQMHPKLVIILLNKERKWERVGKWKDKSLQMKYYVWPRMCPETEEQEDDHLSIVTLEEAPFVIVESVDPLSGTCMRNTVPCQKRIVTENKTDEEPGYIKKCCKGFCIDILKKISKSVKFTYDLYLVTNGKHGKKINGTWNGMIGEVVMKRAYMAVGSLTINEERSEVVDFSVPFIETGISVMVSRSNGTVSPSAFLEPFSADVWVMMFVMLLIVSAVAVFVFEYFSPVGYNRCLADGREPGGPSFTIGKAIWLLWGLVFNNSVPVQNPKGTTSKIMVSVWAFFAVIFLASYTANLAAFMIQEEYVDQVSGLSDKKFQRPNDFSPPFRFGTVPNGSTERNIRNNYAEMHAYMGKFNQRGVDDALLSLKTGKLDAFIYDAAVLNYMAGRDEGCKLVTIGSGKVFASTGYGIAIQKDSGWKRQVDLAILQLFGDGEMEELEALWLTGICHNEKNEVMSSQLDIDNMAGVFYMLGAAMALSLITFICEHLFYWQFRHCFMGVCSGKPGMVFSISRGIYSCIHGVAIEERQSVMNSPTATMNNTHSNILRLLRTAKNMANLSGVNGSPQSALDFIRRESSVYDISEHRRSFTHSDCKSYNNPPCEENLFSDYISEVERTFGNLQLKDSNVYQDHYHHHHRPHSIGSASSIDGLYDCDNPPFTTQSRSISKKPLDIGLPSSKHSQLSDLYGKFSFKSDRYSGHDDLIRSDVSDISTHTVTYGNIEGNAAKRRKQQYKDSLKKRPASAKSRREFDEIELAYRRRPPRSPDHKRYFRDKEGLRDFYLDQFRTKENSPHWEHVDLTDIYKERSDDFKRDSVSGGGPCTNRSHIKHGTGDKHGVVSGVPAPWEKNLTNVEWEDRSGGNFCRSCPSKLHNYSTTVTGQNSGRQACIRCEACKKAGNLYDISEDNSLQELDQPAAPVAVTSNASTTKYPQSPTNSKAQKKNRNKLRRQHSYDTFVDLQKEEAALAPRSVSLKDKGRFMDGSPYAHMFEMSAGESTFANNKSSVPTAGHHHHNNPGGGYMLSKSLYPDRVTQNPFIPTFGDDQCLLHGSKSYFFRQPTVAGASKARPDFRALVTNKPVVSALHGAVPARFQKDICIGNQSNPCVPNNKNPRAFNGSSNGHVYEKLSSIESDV
compound,measurement,setting,value
"COc1ccc(C#N)c(F)c1CNC(=O)c1cnc(OC(F)F)c(F)c1 [Example 17, N-[(3-cyano-2-fluoro-6-methoxyphenyl)methyl]-6-(difluoromethoxy)-5-fluoropyridine-3-carboxamide]",inhibition at 10 µM,[1],96%
same,"inhibitory rate (1 mg/kg, p.o.)",[2],17%
CNC1(c2ccccc2Cl)CCCCC1=O (stereo not drawn) [ketamine],depression symptoms accompanying major depression and bipolar disorder,[3],improves depression symptoms accompanying major depression and bipolar disorder rapidly and in a sustained manner
"COc1ncc(C#N)cc1CNC(=O)c1cnc(OC(F)F)c(F)c1 [Example 9, N-[(5-cyano-2-methoxypyridin-3-yl)methyl]-6-(difluoromethoxy)-5-fluoropyridine-3-carboxamide]",inhibition at 10 µM,[1],94%
same,"inhibitory rate (1 mg/kg, p.o.)",[2],10%
"C[C@@H]([C@@H](O)c1ccc(O)cc1)N1CCC(O)(c2ccccc2)CC1 [CP-101, 606]",treatment resistant-depression symptom,[4],significantly improves treatment resistant-depression symptom
same,number of occurrence and depth of cortical spreading depression,[5],suppress the number of occurrence and the depth of cortical spreading depression
CC(C(O)c1ccc(O)cc1)N1CCC(Cc2ccccc2)CC1 (stereo not drawn) [Ifenprodil],pain sense threshold,[6],the pain sense threshold increases
CC12CC3CC(C)(C1)CC(N)(C3)C2 [memantine],peripheral symptoms of dementia,[7],partially improves peripheral symptoms of dementia
